The text below walks through data of US12492373B2, “Production method for nerve tissue” (Racthera Co., Ltd., priority 2014, dated 2025).

The subject of this assay is human iPS cells (1231A3 strain). In words: Bright field observation of feeder-free cultured human iPS cells after preconditioning. In kind it is cell-based. The method, then:
As a specific example of preconditioning in step 1 of the production method of the present invention, the following operation was performed. First, the subconfluent human iPS cells (1231A3 strain) were washed with PBS, and dispersed into single cells by using TrypLE Select (manufactured by Life Technologies). Thereafter, the above human iPS cells dispersed into single cells were seeded in a plastic culture dish (manufactured by Iwaki) coated with Laminin 511-E8, […] (ROCK inhibiting substance, 10 μM). When a 6-well plate (manufactured by Iwaki, culture area 9.4 cm^2) was used as the above plastic culture dish, the number of plated cells for the above human iPS cells dispersed into single cells was set to 6×10^3. When a 60 mm dish (manufactured by Iwaki, culture area 21 cm^2) was used as the above plastic culture dish, the number of plated cells for the above human iPS cells dispersed into single cells was set to 13×10^3. One day after seeding, the medium was changed to StemFit medium free of Y27632. Thereafter, once in 1-2 days, the medium was changed to StemFit medium free of Y27632. Thereafter, the cells were cultured until 5 days after seeding, namely, one day before subconfluence (50% of culture area is covered with cells). Even when cultured for 6 days after seeding, similar results are shown. The human iPS cells one day before subconfluence in the above feeder-free culturing were subjected to feeder-free culturing in the presence of SB431542 (TGFβR inhibitor (TGFβRi), 5 μM) (step 1: preconditioning treatment, FIG. 1 “Precondition TGFβRi 24 hr”), or in the absence thereof (step 1: without precondition treatment, FIG. 1 “Control”) for 1 day. The bright field observation of cultured cells was performed under an inverted microscope (KEYENCE). […] As a preconditioning operation, subconfluent human iPS cells (1231A3 strain) were first washed with PBS, and dispersed into single cells by using TrypLE Select (manufactured by Life Technologies). […]

[1] abbreviates: 1 day in Essential 8 medium, SB431542 5 μM, LDN193189 100 nM, or both.

On to `c1ccc2c(-c3cnn4cc(-c5ccc(N6CCNCC6)cc5)cnc34)ccnc2c1` [LDN193189, 4-[6-(4-piperazin-1-ylphenyl)pyrazolo[1,5-a]pyrimidin-3-yl]quinoline], for which the “morphology of human iPS cell” value under setting [1] is listed as “not largely influenced”.
As for `NC(=O)c1ccc(-c2nc(-c3ccc4c(c3)OCO4)c(-c3ccccn3)[nH]2)cc1` [SB431542, 4-(5-benzol[1,3]dioxol-5-yl-4-pyridin-2-yl-1H-imidazol-2-yl)-benzamide], the “morphology of human iPS cell” value runs as follows: under setting [1], “not largely influenced”; (SB431542 5 μM for 1 day during feeder-free culturing in StemFit medium) “not largely influenced”.
